Tests used:
Assay type in all cases: ADME, organism-based
Homo sapiens [1] = assay: First order inter-compartment transfer rate constant from central to tissue compartment in healthy subject (7 subjects) at 50 mg, iv by three compartment open model; conditions: in vivo
Homo sapiens [2] = assay: First order inter-compartment transfer rate constant from tissue to central compartment in healthy subject (7 subjects) at 50 mg, iv by three compartment open model; conditions: in vivo
Homo sapiens [3] = assay: First order inter-compartment transfer rate constant from central to deep tissue compartment in healthy subject (7 subjects) at 50 mg, iv by three compartment open model; conditions: in vivo
Homo sapiens [4] = assay: First order inter-compartment transfer rate constant from deep tissue to central compartment in healthy subject (7 subjects) at 50 mg, iv by three compartment open model; conditions: in vivo
[5] = Elimination rate constant in healthy subject (7 subjects) at 50 mg, iv by three compartment open model; conditions: human, in vivo
Homo sapiens [6] = assay: Fast disposition half life in healthy subject (7 subjects) at 50 mg, iv by three compartment open model; conditions: in vivo
[7] = Slow disposition half life in healthy subject (7 subjects) at 50 mg, iv by three compartment open model; conditions: human, in vivo, read-out: alphat1/2 (converted)
[8] = Terminal half life in healthy subject (7 subjects) at 50 mg, iv by three compartment open model; conditions: human, in vivo, read-out: beta t1/2 (converted)
[9] = AUC (0 to infinity) in healthy subject (7 subjects) at 50 mg, iv by three compartment open model; parameters: dose 50 mg, route intravenous, time infinity; conditions: human, in vivo
[10] = Plasma clearance in healthy subject (7 subjects) at 50 mg, iv by three compartment open model; conditions: human
[11] = Total volume of distribution in healthy subject (7 subjects) at 50 mg, iv by three compartment open model; conditions: human, in vivo
[12] = Plasma concentration in healthy subject (7 subjects) at 50 mg, po administered as single dose measured after 1 hr by gas chromatography; conditions: human
[13] = Plasma concentration in healthy subject (7 subjects) at 50 mg, po administered as single dose measured after 1.5 hrs by gas chromatography; conditions: human
[14] = Plasma concentration in healthy subject (7 subjects) at 50 mg, po administered as single dose measured after 2 hrs by gas chromatography; conditions: human
[15] = Plasma concentration in healthy subject (7 subjects) at 50 mg, po administered as single dose measured after 2.5 hrs by gas chromatography; conditions: human
[16] = Plasma concentration in healthy subject (7 subjects) at 50 mg, po administered as single dose measured after 3 hrs by gas chromatography; conditions: human
[17] = Plasma concentration in healthy subject (7 subjects) at 50 mg, po administered as single dose measured after 3.5 hrs by gas chromatography; conditions: human
[18] = Plasma concentration in healthy subject (7 subjects) at 50 mg, po administered as single dose measured after 4 hrs by gas chromatography; conditions: human
[19] = Plasma concentration in healthy subject (7 subjects) at 50 mg, po administered as single dose measured after 4.5 hrs by gas chromatography; conditions: human
[20] = Plasma concentration in healthy subject (7 subjects) at 50 mg, po administered as single dose measured after 5 hrs by gas chromatography; conditions: human
[21] = Plasma concentration in healthy subject (7 subjects) at 50 mg, po administered as single dose measured after 5.5 hrs by gas chromatography; conditions: human
[22] = Plasma concentration in healthy subject (7 subjects) at 50 mg, po administered as single dose measured after 7 hrs by gas chromatography; conditions: human
[23] = Plasma concentration in healthy subject (7 subjects) at 50 mg, po administered as single dose measured after 6 hrs by gas chromatography; conditions: human
[24] = Plasma concentration in healthy subject (7 subjects) at 50 mg, po administered as single dose measured after 6.5 hrs by gas chromatography; conditions: human
[25] = Plasma concentration in healthy subject (7 subjects) at 50 mg, po administered as single dose measured after 8 hrs by gas chromatography; conditions: human
[26] = Plasma concentration in healthy subject (7 subjects) at 50 mg, po administered as single dose measured after 9 hrs by gas chromatography; conditions: human
[27] = Cmax in healthy subject (7 subjects) at 50 mg, po administered as single dose; parameters: dose 50 mg, route oral; conditions: human, in vivo
[28] = Tmax in healthy subject (7 subjects) at 50 mg, po administered as single dose; conditions: human, in vivo
Homo sapiens [29] = assay: Tlag in healthy subject (7 subjects) at 50 mg, po administered as single dose; conditions: in vivo
[30] = AUC (0 to infinity) in healthy subject (7 subjects) at 50 mg, po administered as single dose; parameters: dose 50 mg, route oral, time infinity; conditions: human, in vivo
[31] = Elimination rate constant in healthy subject (7 subjects) at 50 mg, po administered as single dose; conditions: human, in vivo
[32] = Terminal half life in healthy subject (7 subjects) at 50 mg, po administered as single dose; conditions: human, in vivo, read-out: beta t1/2 (converted)
[33] = Oral bioavailability in healthy subject (7 subjects) at 50 mg administered as single dose; conditions: human, in vivo
[34] = Cmax in healthy subject (7 subjects) at 50 mg, iv measured after 5 mins; parameters: dose 50 mg, route intravenous; conditions: human, in vivo

O=C([O-])Cc1ccccc1Nc1c(Cl)cccc1Cl.[Na+] [DICLOFENAC SODIUM]
K (Homo sapiens [1]): 5.5 h⁻¹ | K (Homo sapiens [2]): 5.2 h⁻¹ | K (Homo sapiens [3]): 2.6 h⁻¹ | K (Homo sapiens [4]): 0.8 h⁻¹ | k el [5]: 0.00236 s⁻¹ | t1/2 (Homo sapiens [6]): 3 min | half-life [7]: 0.26 h | half-life [8]: 1.1 h | AUC(0-inf) [9]: 3290 ng·h/mL | clearance [10]: 263 mL/min | Vd [11]: 0.172 L/kg | concentration at 1 h [12]: 200 ng/mL | concentration at 1.5 h [13]: 100 ng/mL | concentration at 2 h [14]: 860 ng/mL | concentration at 2.5 h [15]: 710 ng/mL | concentration at 3 h [16]: 690 ng/mL | concentration at 3.5 h [17]: 240 ng/mL | concentration at 4 h [18]: 110 ng/mL | concentration at 4.5 h [19]: 215 ng/mL | concentration at 5 h [20]: 95 ng/mL | concentration at 5.5 h [21]: 54 ng/mL | concentration at 7 h [22]: 15 ng/mL | concentration at 6 h [23]: 35 ng/mL | concentration at 6.5 h [24]: 25 ng/mL | concentration at 8 h [25]: 11 ng/mL | concentration at 9 h [26]: 3 ng/mL | Cmax [27]: 2000 ng/mL | Tmax [28]: 2.5 h | Tlag (Homo sapiens [29]): 1.9 h | AUC(0-inf) [30]: 1670 ng·h/mL | k el [31]: 0.000183 s⁻¹ | half-life [32]: 1.8 h | bioavailability [33]: 54% | Cmax [34]: 7800 ng/mL

Source: ChEMBL document CHEMBL3785039, “The pharmacokinetics of diclofenac sodium following intravenous and oral administration” (Eur J Clin Pharmacol, 1979)
